Laboratory results published in patent US10632101B2, “Methods and compositions for supporting endogenous systems related to life span” (USANA Health Sciences, Inc., priority 2016, dated 2020).

Legend:
human PPARα = biological target: T1, human PPARα (Homo sapiens, UniProt Q07869); assay: PPARα reporter cell assay, agonist mode; type: cell-based
T1 construct: expressed in transfected cells; host or cells: CHO
T1 sequence (Q07869 239-466 limits assumed): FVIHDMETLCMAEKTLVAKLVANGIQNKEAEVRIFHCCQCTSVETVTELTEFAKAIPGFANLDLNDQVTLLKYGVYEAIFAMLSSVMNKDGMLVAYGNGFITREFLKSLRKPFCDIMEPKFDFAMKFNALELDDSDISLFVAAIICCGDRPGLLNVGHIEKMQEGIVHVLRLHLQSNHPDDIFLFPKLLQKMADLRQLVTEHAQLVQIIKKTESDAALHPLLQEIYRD

human PPARδ = biological target: T2, human PPARδ (Homo sapiens, UniProt Q03181); assay: PPARδ reporter cell assay, agonist mode; type: cell-based
T2 construct: expressed in transfected cells; host or cells: CHO
T2 sequence (Q03181 211-439 limits assumed): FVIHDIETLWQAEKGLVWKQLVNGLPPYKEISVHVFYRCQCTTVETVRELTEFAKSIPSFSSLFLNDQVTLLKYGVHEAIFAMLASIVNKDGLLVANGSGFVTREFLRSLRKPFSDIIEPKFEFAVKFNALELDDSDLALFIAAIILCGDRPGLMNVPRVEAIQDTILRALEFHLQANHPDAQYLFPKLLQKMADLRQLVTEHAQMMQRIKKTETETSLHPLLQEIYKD

human PPARγ = biological target: T3, human PPARγ (Homo sapiens, UniProt P37231); assay: PPARγ reporter cell assay, agonist mode; type: cell-based
T3 construct: expressed in transfected cells; host or cells: CHO
T3 sequence (P37231 238-503 limits assumed): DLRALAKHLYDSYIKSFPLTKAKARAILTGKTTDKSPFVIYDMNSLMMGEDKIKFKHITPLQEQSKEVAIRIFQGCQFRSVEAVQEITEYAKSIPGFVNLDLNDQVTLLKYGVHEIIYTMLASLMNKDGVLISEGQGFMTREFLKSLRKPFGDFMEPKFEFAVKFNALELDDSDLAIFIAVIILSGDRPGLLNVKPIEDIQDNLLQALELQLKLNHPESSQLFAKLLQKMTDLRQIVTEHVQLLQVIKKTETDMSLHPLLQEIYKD

human NF-κB = assay: NF-κB reporter cell assay, antagonist mode; type: cell-based
mTOR = biological target: T4, mTOR (Homo sapiens, UniProt P42345); details: cited from earlier work; for mTOR inhibition: applied to isolated cells in culture
T4 construct: host or cells: isolated cells in culture (not specified)

C. elegans strain CB5586 = assay: Phenotypic lifespan screening in C. elegans; type: in vivo; details: for mean lifespan: DMSO control 13.23; for Statistically Significant Result: 10 mg/ml compared to DMSO control; for effect on chronological lifespan: 0.1 and 10 mg/ml tested
Method: Dilutions of the test formulations were applied to individual populations of C. elegans and the lifespan of each population was monitored. Any changes in the lifespan of an individual population compared to a control population were recorded and correlated to the respective test formulation (N356 or N357) and the respective dilution (0.1 mg/ml, 1 mg/ml, and 10 mg/ml).
The N256 and N357 formulations were each prepared as individual 100 mg/ml stock solutions in dimethyl sulfoxide (DMSO). Serial dilutions of each stock solution were then prepared at 0.1 mg/ml, 1 mg/ml, and 10 mg/ml in DMSO. Control solutions of DMSO only were also prepared. Synchronous aged adult populations of C. elegans strain CB5586 worms were prepared. The CB5586 strain comprises a pharyngeal GFP (green fluorescent protein) tag and a mutation in the bus-5 gene. The pharyngeal GFP tag allows for fluorescent images of the worm populations to be taken. The mutation in the bus-5 gene causes the loss of normal cuticle antigens that permits the cuticle of the worms to become permeable to the test formulations and allow direct uptake of the test formulations to avoid interaction of the test formulations with protective mechanisms of the gut channel. Each serial dilution of each test formulation was added to a separate population of the prepared worms. The control solutions were also added to separate populations of the prepared worms. The populations of the prepared worms were then maintained on standard nematode growth media (NGM) agar plates at 20° C. with sufficient food (Escherichia coli strain OP-50).
Each worm population was then monitored by fluorescent imaging to determine the number of living and dead worms as a function of time. The fluorescent imaging was analyzed by software that recognized and counted worms based on their fluorescent intensity compared to background fluorescence. […] The ability to distinguish between living and dead worms allowed the number of living worms and a cumulative number of dead worms to be monitored against time. Worm populations from a selection of fluorescent images were manually checked to verify that the software had accurately counted the number of living and dead worms.
The counts of the living and dead worms as a function of time were then analyzed for each of the worm populations and used to prepare Kaplan-Meier survival curves and associated statistics for each of the worm populations. […] The median lifespan is shown as the length of time after the last mitotic division that 50% of the test population remains viable when compared to the control population. The maximum lifespan extension is shown as the length of time after the last mitotic division that 5% of the test population remains viable when compared to the control population.
The counts of the living and dead worms as a function of time and the Kaplan-Meier survival curves and the associated statistics were then analyzed for each of the worm populations. The analysis included determining mean and median lifespan. The analysis included a non-parametric test, the Log-Rank test, which compares two survival functions for the overall lifespan assay and provides a reliable p-value summarizing the whole experiment. The analysis also included Fisher's Exact Test that calculated the significance of survival function comparisons at multiple specific time points throughout the experiment, rather than for the overall lifespan. The results of the analysis are shown below in Tables 10-17.
Phenotypic screening was carried out as described in EXAMPLE 2 for various individual compounds of the N357 formulation. […] Alpha lipoic acid was sourced from PureBulk™ USA as a racemic mix of R and S stereoisomers and was assigned a sample number of N198. Hesperidin was sourced from Sigma Aldrich at ≥80% purity and was assigned a sample number of N347. […]

Question: With COc1cc(/C=C/C(=O)CC(=O)/C=C/c2ccc(O)c(OC)c2)ccc1O [Curcumin, curcumin] as the compound, how does the “PPARα Fold-Activation” value (human PPARα; 0.007 μg/ml) read?
Answer: 1.3

Question: What about the “PPARα Fold-Activation” value (human PPARα; 0.022 μg/ml) of the same compound?
Answer: 1.3

Question: And the “PPARα Fold-Activation” value (human PPARα; 0.067 μg/ml)?
Answer: 1.3

Question: What about the “PPARα Fold-Activation” value (human PPARα; 0.20 μg/ml) of the same compound?
Answer: 1.1

Question: What about the “PPARα Fold-Activation” value (human PPARα; 0.60 μg/ml) of the same compound?
Answer: 1.0

Question: What about the “PPARα Fold-Activation” value (human PPARα; 1.81 μg/ml) of the same compound?
Answer: 0.86

Question: What about the “PPARδ Fold-Activation” value (human PPARδ; 0.007 μg/ml) of the same compound?
Answer: 1.2

Question: What about the “PPARδ Fold-Activation” value (human PPARδ; 0.022 μg/ml) of the same compound?
Answer: 1.2

Question: What about the “PPARδ Fold-Activation” value (human PPARδ; 0.067 μg/ml) of the same compound?
Answer: 1.0

Question: What about the “PPARδ Fold-Activation” value (human PPARδ; 0.20 μg/ml) of the same compound?
Answer: 1.2

Question: And the “PPARδ Fold-Activation” value (human PPARδ; 0.60 μg/ml)?
Answer: 1.3

Question: And the “PPARδ Fold-Activation” value (human PPARδ; 1.81 μg/ml)?
Answer: 1.0

Question: What about the “PPARγ Fold-Activation” value (human PPARγ; 0.007 μg/ml) of the same compound?
Answer: 1.0

Question: And the “PPARγ Fold-Activation” value (human PPARγ; 0.022 μg/ml)?
Answer: 1.0

Question: And the “PPARγ Fold-Activation” value (human PPARγ; 0.067 μg/ml)?
Answer: 0.95

Question: And the “PPARγ Fold-Activation” value (human PPARγ; 0.20 μg/ml)?
Answer: 0.96

Question: And the “PPARγ Fold-Activation” value (human PPARγ; 0.60 μg/ml)?
Answer: 0.90

Question: And the “PPARγ Fold-Activation” value (human PPARγ; 1.81 μg/ml)?
Answer: 1.1

Question: And the “NF-κB % Inhibition” value (human NF-κB; 0.007 μg/ml)?
Answer: −10%

Question: What about the “NF-κB % Inhibition” value (human NF-κB; 0.60 μg/ml) of the same compound?
Answer: 30%

Question: What about the “mTOR inhibition” value (mTOR) of the same compound?
Answer: inhibit mTOR

Question: And the “mTOR inhibition, mitophagy and mitochondrial turnover” value (mTOR)?
Answer: inhibit mTOR, up-regulate mitophagy, and increase the rate of mitochondrial turnover

Question: For O=C(O[C@@H]1Cc2c(O)cc(O)cc2O[C@@H]1c1cc(O)c(O)c(O)c1)c1cc(O)c(O)c(O)c1 [EGCG, epigallocatechin gallate], which “NF-κB % Inhibition” value (human NF-κB; 0.033 μg/ml) is on record?
Answer: 10%

Question: What about the “NF-κB % Inhibition” value (human NF-κB; 0.098 μg/ml) of the same compound?
Answer: 18%

Question: And the “NF-κB % Inhibition” value (human NF-κB; 0.30 μg/ml)?
Answer: 0.10%

Question: What about the “NF-κB % Inhibition” value (human NF-κB; 0.89 μg/ml) of the same compound?
Answer: 8.4%

Question: And the “NF-κB % Inhibition” value (human NF-κB; 2.67 μg/ml)?
Answer: −15%

Question: And the “NF-κB % Inhibition” value (human NF-κB; 8 μg/ml)?
Answer: −29%

Question: And the “mTOR inhibition” value (mTOR)?
Answer: inhibit mTOR

Question: And the “mTOR inhibition, mitophagy and mitochondrial turnover” value (mTOR)?
Answer: inhibit mTOR, up-regulate mitophagy, and increase the rate of mitochondrial turnover

Question: For COc1ccc([C@@H]2CC(=O)c3c(O)cc(O)cc3O2)cc1O [Hesperetin, (S)-2,3-Dihydro-5,7-dihydroxy-2-(3-hydroxy-4-methoxyphenyl)-4H-1-benzopyran-4-one], which “PPARα Fold-Activation” value (human PPARα; 0.043 μg/ml) is on record?
Answer: 1.4

Question: And the “PPARα Fold-Activation” value (human PPARα; 0.389 μg/ml)?
Answer: 1.2

Question: And the “PPARα Fold-Activation” value (human PPARα; 1.167 μg/ml)?
Answer: 1.0

Question: And the “PPARα Fold-Activation” value (human PPARα; 3.5 μg/ml)?
Answer: 0.79

Question: And the “PPARδ Fold-Activation” value (human PPARδ; 0.043 μg/ml)?
Answer: 1.1

Question: What about the “PPARδ Fold-Activation” value (human PPARδ; 0.389 μg/ml) of the same compound?
Answer: 1.0

Question: What about the “PPARδ Fold-Activation” value (human PPARδ; 1.167 μg/ml) of the same compound?
Answer: 1.1

Question: And the “PPARδ Fold-Activation” value (human PPARδ; 3.5 μg/ml)?
Answer: 0.89

Question: And the “PPARγ Fold-Activation” value (human PPARγ; 0.043 μg/ml)?
Answer: 1.0

Question: What about the “PPARγ Fold-Activation” value (human PPARγ; 0.389 μg/ml) of the same compound?
Answer: 1.1

Question: And the “PPARγ Fold-Activation” value (human PPARγ; 1.167 μg/ml)?
Answer: 1.1

Question: And the “PPARγ Fold-Activation” value (human PPARγ; 3.5 μg/ml)?
Answer: 0.55

Question: What does the source list for COc1ccc([C@@H]2CC(=O)c3c(O)cc(O[C@@H]4O[C@H](CO[C@@H]5O[C@@H](C)[C@H](O)[C@@H](O)[C@H]5O)[C@@H](O)[C@H](O)[C@H]4O)cc3O2)cc1O [N347, Hesperidin]?
Answer: extension of lifespan (Kaplan-Meier figure) (C. elegans strain CB5586; 0.1 mg/ml): about 10%; % Change in Mean Lifespan (C. elegans strain CB5586; 0.1 mg/ml compared to DMSO control): +10%; mean lifespan (C. elegans strain CB5586; 0.1 mg/ml): 14.55 days; Statistically Significant Result (C. elegans strain CB5586): No statistical difference; mean lifespan (C. elegans strain CB5586; 10 mg/ml): 14.19 days; effect on chronological lifespan (C. elegans strain CB5586): significant positive and dose-dependent increase of chronological lifespan

Question: Which “NF-κB % Inhibition” value (human NF-κB; 0.84 μg/ml) does the source give for O=c1c(O)c(-c2ccc(O)c(O)c2)oc2cc(O)cc(O)c12 [Quercetin, 2-(3,4-dihydroxyphenyl)-3,5,7-trihydroxy-4H-chromen-4-one] here?
Answer: −6%

Question: And the “Statistically Significant Result” value (C. elegans strain CB5586)?
Answer: No statistical difference

Question: What about the “effect on chronological lifespan” value (C. elegans strain CB5586) of the same compound?
Answer: significant negative effect on chronological lifespan

Question: For C[C@@H]1O[C@@H](OC[C@H]2O[C@@H](Oc3c(-c4ccc(O)c(O)c4)oc4cc(O)cc(O)c4c3=O)[C@H](O)[C@@H](O)[C@@H]2O)[C@H](O)[C@H](O)[C@H]1O [Rutin, 2-(3,4-dihydroxyphenyl)-5,7-dihydroxy-3-[α-L-rhamnopyranosyl-(1→6)-β-D-glucopyranosyloxy]-4H-chromen-4-one], which “NF-κB % Inhibition” value (human NF-κB; 1.11 μg/ml) is on record?
Answer: 10%

Question: Which results are given for Cn1c(=O)c2c(ncn2C)n(C)c1=O [caffeine]?
Answer: mTOR inhibition (mTOR): inhibit mTOR; mTOR inhibition, mitophagy and mitochondrial turnover (mTOR): inhibit mTOR, up-regulate mitophagy, and increase the rate of mitochondrial turnover
